Where two headings read alike, the source gives them in different places.
Assays:
cSRC_h = target: T1, cSRC_h (Homo sapiens, UniProt P12931); test: SelectScreen kinase assay; type: biochemical; settings: KM ATP, read-out: % control
T1 construct: purchased Life Technologies (Invitrogen) SelectScreen, Z'-LYTE / Adapta

LRRK2 G2019S_h = target: T2, LRRK2 G2019S_h (Homo sapiens, UniProt Q5S007, G2019S); test: SelectScreen kinase assay; type: biochemical; settings: KM ATP, read-out: % control
T2 construct: purchased Life Technologies (Invitrogen) SelectScreen, Z'-LYTE / Adapta

NEK7_h = target: T3, NEK7_h (Homo sapiens, UniProt Q8TDX7); test: SelectScreen kinase assay; type: biochemical; settings: KM ATP, read-out: % control
T3 construct: purchased Life Technologies (Invitrogen) SelectScreen, Z'-LYTE / Adapta

PhK-gamma1_h = target: T4, PhK-gamma1_h (Homo sapiens, UniProt Q16816); test: SelectScreen kinase assay; type: biochemical; settings: KM ATP, read-out: % control
T4 construct: purchased Life Technologies (Invitrogen) SelectScreen, Z'-LYTE / Adapta

PKC-iota_h = target: T5, PKC-iota_h (Homo sapiens, UniProt P41743); test: SelectScreen kinase assay; type: biochemical; settings: KM ATP, read-out: % control
T5 construct: purchased Life Technologies (Invitrogen) SelectScreen, Z'-LYTE / Adapta

ZIPK_h = target: T6, ZIPK_h (Homo sapiens, UniProt O43293); test: SelectScreen kinase assay; type: biochemical; settings: KM ATP, read-out: % control
T6 construct: purchased Life Technologies (Invitrogen) SelectScreen, Z'-LYTE / Adapta

[1] = test system: rat passive cutaneous anaphylaxis model; test: rat passive cutaneous anaphylaxis (PCA) model; type: in vivo
Description: On day 0, male CD-IGS rats (170 – 190g; Charles River Laboratories) were anesthetized with isofluorane, their dorsal region shaved and 50 μl Anti-DNP-IgE (Clone SPE-7, Sigma, St. Louis, MO) that had been diluted 1:1000 in saline was injected via the intradermal route at 3 individual spots along the right side of the back. Saline was injected via the intradermal route at 3 individual spots along the left side of the back as a sham control. Twenty-four hours later, 200 μl of BSA-DNP (Calbiochem, San Diego, CA), prepared (1 mg prepared in a 2% solution of Evans blue dye: Sigma Chemicals, St. Louis, MO) was injected via the IV route via the tail vein. Thirty minutes after the BSA-DNP challenge the experiment was terminated and skin samples from the middle of each injection site taken for Evans blue dye measurement at an OD measurement at 620nm on a plate reader following incubation (2h at 90°C) and homogenization in formamide (Sigma Chemicals, St. Louis, MO). Vehicle (20% Captisol® (Captisol), PO), the positive control (Cromolyn: Sigma Chemicals, St. Louis, MO 100mg/kg, 2mL/kg, IV) or CC0484509 (3 and 10mg/kg, PO) were dosed 1h prior to the IV challenge with BSA-DNP.
For the TEL-Syk assay, the intensity values for the 700 and 800 channel were exported as text files in ActivityBase (IDBS, Guildford, UK) to derive the ratios that reflect kinase activity. For LAD2 experiments, enzyme activity values were exported as text files into ActivityBase to calculate “percent release” according to the formula: 100* supernatant OD405/ (supernatant OD405 + (pellet OD405*pellet dilution factor)). For the basophil and B-cells assays, flow cytometry data was exported from the FACS Array and processed using FloJo software package (TreeStar, Inc., Ashland, Oregon). For the JAK2 HEL and Ramos NFAT β-lactamase assays, the fluorescence values obtained at 460 nm and 530 nm were exported into ActivityBase to calculate response ratios. For the neutrophil, macrophage, KDR, and JAK1/3 assays, raw values were exported into ActivityBase to calculate percent inhibition. All IC50 calculations were generated using XLfit (IDBS, Guildford, UK) algorithm 205 within Excel. For PCA, the OD from the saline injected site was subtracted from the OD from the anti-DNP IgE injected site. Evans blue dye extravasation was expressed as mean ± SEM and % inhibition for the test article groups was normalized to the cromolyn positive control. For the CIA model paw measurements (left and right ankle diameter) were taken for each individual animal and averaged. The mean data from each group was plotted and either the AUC(day 11–18) or % inhibition on day 18 was calculated. Data is expressed as mean ± SEM of each group with n = 6–12. […]

[2] = test system: proinflammatory analytes in paw tissue; test: inflammatory cytokines measured in the paw, rat CIA; type: in vivo
Description: Following the last administration of CC-509, paw samples were collected and processed for cytokine and chemokine analysis (Aushon Biosciences, Billerica, MA). Briefly paws were snap-frozen and pulverized in liquid nitrogen followed by addition of cell signal lysis buffer in the presence of protease and phosphatase inhibitors (Sigma Chemicals, St. Louis, MO). Samples were homogenized on high speed for 30 seconds, incubated on ice for 20 minutes then sonicated at high intensity for 1 minute. Samples were spun at high speed and supernatants were collected for cytokine analysis.

Syk = Syk (Homo sapiens, UniProt P43405); test: Syk HTRF assay; type: biochemical; parameters: purchased Carna Biosciences 08-176; settings: in-house, mean ± SD, n = 8
Description: CC-509 was prepared at a concentration of 1.5 mM in dimethyl sulfoxide (DMSO) followed by 3-fold dilutions in Greiner 384 well polypropylene plates. […] Time resolved fluorescence was read in assay plates on a PerkinElmer EnVision. […] The IC50 value was determined as described in the data fitting section below.
For the TEL-Syk assay, the intensity values for the 700 and 800 channel were exported as text files in ActivityBase (IDBS, Guildford, UK) to derive the ratios that reflect kinase activity. […] For the JAK2 HEL and Ramos NFAT β-lactamase assays, the fluorescence values obtained at 460 nm and 530 nm were exported into ActivityBase to calculate response ratios. […] Evans blue dye extravasation was expressed as mean ± SEM and % inhibition for the test article groups was normalized to the cromolyn positive control. […] The mean data from each group was plotted and either the AUC(day 11–18) or % inhibition on day 18 was calculated. Data is expressed as mean ± SEM of each group with n = 6–12. […]

[3] = rat CIA, cited from earlier work

T2 sequence (Q5S007 whole entry G2019S): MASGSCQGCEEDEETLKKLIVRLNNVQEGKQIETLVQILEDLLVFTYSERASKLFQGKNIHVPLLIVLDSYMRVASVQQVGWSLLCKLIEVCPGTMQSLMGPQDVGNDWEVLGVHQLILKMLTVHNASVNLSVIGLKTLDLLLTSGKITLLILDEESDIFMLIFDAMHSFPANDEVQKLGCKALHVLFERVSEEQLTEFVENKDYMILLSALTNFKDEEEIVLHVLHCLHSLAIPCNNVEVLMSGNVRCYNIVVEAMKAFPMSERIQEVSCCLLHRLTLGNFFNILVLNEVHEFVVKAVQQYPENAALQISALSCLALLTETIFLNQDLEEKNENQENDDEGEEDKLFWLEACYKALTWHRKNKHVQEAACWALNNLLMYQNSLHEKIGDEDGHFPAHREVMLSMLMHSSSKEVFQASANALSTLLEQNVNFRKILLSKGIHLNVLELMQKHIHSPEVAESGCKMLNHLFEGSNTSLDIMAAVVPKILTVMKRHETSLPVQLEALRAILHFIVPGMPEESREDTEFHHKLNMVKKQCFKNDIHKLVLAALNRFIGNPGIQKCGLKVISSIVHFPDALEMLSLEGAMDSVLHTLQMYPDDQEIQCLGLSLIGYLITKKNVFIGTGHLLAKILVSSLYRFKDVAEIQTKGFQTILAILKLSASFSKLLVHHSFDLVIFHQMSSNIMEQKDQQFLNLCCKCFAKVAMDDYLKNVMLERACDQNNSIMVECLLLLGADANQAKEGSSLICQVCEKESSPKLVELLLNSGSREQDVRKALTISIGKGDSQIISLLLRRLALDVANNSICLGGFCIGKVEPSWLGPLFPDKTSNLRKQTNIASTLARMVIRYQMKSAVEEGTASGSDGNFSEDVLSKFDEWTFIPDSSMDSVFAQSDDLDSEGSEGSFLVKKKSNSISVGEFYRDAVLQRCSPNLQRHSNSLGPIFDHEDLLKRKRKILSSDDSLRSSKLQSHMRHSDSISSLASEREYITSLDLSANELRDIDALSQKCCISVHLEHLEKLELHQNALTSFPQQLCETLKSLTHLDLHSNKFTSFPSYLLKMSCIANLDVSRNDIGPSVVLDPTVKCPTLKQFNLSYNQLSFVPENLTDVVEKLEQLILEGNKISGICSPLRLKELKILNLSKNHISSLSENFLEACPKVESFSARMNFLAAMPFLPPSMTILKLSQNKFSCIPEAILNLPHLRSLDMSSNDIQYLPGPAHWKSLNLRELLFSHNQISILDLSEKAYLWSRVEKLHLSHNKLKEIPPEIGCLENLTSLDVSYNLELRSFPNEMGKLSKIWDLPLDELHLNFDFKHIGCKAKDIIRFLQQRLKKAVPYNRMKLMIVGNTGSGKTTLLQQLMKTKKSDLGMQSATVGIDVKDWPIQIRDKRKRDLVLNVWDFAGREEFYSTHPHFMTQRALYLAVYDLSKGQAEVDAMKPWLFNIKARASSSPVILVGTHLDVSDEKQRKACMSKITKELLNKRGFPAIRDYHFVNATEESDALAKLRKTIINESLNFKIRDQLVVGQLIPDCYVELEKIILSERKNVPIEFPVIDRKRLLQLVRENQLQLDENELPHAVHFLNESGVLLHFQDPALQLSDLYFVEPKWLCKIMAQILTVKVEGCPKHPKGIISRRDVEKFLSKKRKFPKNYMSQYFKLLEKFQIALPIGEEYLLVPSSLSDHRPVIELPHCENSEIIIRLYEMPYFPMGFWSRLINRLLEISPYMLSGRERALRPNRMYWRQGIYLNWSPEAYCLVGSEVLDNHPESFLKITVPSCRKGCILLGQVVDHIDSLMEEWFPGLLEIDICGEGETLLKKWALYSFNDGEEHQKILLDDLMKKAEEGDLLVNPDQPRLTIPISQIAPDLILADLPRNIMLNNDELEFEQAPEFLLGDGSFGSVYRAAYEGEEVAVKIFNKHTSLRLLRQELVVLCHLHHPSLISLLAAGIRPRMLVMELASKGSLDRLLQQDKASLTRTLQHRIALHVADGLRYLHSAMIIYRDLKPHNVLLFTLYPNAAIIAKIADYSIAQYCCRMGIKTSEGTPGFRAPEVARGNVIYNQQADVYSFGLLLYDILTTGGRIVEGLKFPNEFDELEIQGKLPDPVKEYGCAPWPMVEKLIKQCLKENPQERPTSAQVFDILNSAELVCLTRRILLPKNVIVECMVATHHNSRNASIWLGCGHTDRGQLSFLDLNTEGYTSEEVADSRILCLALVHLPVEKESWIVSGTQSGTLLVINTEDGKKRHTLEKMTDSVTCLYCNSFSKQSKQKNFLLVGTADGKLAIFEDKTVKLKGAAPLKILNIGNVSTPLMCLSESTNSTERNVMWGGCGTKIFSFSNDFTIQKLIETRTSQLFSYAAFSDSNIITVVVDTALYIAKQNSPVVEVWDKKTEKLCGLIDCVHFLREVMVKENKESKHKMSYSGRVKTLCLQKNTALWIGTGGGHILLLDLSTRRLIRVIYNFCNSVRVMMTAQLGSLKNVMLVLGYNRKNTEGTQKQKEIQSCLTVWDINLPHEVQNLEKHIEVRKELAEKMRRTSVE
T4 sequence (Q16816 whole entry): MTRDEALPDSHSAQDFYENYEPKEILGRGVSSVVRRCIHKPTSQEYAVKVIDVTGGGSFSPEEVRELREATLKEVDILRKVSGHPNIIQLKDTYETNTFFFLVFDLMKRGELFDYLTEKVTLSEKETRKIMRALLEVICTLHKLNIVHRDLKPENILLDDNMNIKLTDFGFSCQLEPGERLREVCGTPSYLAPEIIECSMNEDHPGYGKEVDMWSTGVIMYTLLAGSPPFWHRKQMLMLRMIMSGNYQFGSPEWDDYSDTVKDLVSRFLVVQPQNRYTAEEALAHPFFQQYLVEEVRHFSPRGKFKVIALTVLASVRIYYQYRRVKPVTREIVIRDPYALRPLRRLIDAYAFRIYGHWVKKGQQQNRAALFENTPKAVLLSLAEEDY
T1 sequence (P12931 whole entry): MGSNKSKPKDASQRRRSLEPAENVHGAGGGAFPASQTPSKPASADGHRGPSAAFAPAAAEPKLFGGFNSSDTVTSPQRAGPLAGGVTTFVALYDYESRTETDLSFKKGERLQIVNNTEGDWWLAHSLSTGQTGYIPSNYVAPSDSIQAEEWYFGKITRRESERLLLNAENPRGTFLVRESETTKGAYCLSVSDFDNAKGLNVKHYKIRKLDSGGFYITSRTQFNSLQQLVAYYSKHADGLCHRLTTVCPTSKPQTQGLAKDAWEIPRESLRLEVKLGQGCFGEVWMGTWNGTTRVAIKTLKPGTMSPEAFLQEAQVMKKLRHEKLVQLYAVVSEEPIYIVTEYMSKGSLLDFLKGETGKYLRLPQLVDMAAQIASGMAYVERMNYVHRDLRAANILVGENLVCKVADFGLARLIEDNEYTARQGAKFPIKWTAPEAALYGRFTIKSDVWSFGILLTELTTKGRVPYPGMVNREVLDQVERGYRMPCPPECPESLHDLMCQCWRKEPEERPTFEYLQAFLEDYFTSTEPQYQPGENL
T3 sequence (Q8TDX7 whole entry): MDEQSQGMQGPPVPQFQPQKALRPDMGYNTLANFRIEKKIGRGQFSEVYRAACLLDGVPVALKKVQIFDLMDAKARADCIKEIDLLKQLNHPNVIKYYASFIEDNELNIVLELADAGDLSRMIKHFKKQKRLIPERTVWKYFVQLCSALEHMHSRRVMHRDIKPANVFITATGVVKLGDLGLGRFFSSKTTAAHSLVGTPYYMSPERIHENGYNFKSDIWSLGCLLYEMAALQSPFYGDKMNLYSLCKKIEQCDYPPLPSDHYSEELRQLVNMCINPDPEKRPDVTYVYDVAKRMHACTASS
T5 sequence (P41743 whole entry): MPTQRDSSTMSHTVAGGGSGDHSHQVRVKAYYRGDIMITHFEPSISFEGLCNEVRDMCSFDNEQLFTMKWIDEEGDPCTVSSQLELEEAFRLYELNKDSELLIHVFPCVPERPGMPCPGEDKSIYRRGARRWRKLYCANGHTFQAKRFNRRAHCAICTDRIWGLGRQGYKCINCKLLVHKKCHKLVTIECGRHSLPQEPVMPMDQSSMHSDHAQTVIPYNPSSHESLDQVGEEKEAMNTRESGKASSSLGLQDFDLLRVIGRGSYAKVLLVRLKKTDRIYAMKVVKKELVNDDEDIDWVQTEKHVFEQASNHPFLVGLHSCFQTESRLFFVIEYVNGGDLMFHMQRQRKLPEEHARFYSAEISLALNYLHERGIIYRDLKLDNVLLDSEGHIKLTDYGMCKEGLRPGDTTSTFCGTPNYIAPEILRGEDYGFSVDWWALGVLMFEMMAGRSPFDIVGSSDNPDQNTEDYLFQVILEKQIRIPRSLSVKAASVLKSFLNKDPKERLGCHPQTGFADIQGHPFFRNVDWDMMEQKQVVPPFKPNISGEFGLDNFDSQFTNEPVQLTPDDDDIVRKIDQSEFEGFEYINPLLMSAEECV
T6 sequence (O43293 whole entry): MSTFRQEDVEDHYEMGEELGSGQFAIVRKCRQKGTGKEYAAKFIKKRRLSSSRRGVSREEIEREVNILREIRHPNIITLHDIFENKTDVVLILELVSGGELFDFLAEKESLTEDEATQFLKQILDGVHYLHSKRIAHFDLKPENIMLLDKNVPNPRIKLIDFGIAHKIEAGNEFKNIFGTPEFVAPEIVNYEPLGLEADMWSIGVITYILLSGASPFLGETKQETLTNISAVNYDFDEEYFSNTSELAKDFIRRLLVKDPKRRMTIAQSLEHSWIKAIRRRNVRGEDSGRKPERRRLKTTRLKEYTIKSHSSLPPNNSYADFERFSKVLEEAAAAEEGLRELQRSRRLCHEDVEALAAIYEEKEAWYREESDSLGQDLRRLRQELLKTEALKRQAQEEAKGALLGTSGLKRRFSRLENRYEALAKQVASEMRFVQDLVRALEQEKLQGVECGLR

c1cc(CC2CCOCC2)n2nc(Nc3ccc4c(NC5CCOCC5)n[nH]c4c3)nc2c1 [CC-509, [3-(2H-3,4,5,6-tetrahydropyran-4-ylamino)(1H-indazol-6-yl)][5-(2H-3,4,5,6-tetrahydropyran-4-ylmethyl)(2H-1,2,4-triazolo[1,5-a]pyridin-2-yl)]amine]
remaining activity at 3 µM (cSRC_h): 67%
remaining activity at 3 µM (LRRK2 G2019S_h): 4%
remaining activity at 3 µM (NEK7_h): 102%
remaining activity at 3 µM (PhK-gamma1_h): 75%
remaining activity at 3 µM (PKC-iota_h): 88%
remaining activity at 3 µM (ZIPK_h): 96%
inhibition of skin edema, normalized to cromolyn ([1]; 3 mg/kg PO, not statistically significant): 26%
inhibition of skin edema, normalized to cromolyn ([1]; 10 mg/kg PO, p<0.01): 81%
ED50 ([1]; Rattus norvegicus, PCA model, dye extravasation): ~5 mg/kg
other proinflammatory analytes in the paw (IL-1β, IL-6, CRP) ([2]; day 18): No other significant effects
MCP-1 in the paw ([2]; day 18, 15 mg/kg q.d. and b.i.d. groups, p<0.01): significantly reduced
RANTES in the paw ([2]; day 18, all CC-509 dose levels, p<0.001): significantly reduced
KC in the paw ([2]; day 18, only in the 15 mg/kg b.i.d. group, p<0.05): reduced
MIP-1α in the paw ([2]; day 18, CC-509 all dose levels p<0.01, indomethacin p<0.05): significantly reduced
IC50 (Syk): 0.026 ± 0.006 µM

COc1cc(Nc2ncc(F)c(Nc3ccc4c(n3)NC(=O)C(C)(C)O4)n2)cc(OC)c1OC [R406, reference compound]
exposure following a single dose ([3]; 10 mg/kg b.i.d.): 15 µM·h
exposure following a single dose ([3]; 30 mg/kg b.i.d.): 38 µM·h

Source: PMC4710522, “A Novel Triazolopyridine-Based Spleen Tyrosine Kinase Inhibitor That Arrests Joint Inflammation” (PLoS ONE, 2016)
